Tests used:
[1] = tested on: PC3-luc cells; assay: Intratibial PC3-luc tumor growth in SCID mice, checked weekly by BLI; assay type: in vivo; conditions: BAL 20 mg/kg s.c. twice daily, DOC 5 mg/kg i.p. once a week, weeks 1-4, combination p=0.009
Description: Methods: 59 severe combined immunodeficiency (SCID) mice received intratibial injection with PC3-luc cells (2×10^4 cells in 20 ul). Balixafortide (20 mg/kg) (BAL) and vehicle were injected subcutaneously twice daily starting on day one and Docetaxel (5 mg/kg) (DOC) was injected intraperitoneal once a week starting on day one. The tumor growth in mouse tibia was checked weekly by BLI.

[2] = tested on: PC3-luc cells; assay: Radiograph of injected tibia at necropsy: bone degradation and percent osteolytic area; assay type: in vivo, mice; conditions: proximal third of tibia, no significant differences among the groups
Description: After 30 days, at the time of necropsy, tumor growth in mouse tibia was checked by radiograph and mice were sacrificed, and serum and bone were collected. Serum was kept at −80° C. and tibia were stored in 10% buffered formalin at room temperature for 48 hours before being stored at 4° C.
Radiographic images were imported into SketchandCalc software. The proximal third of the tibia was traced to calculate its area and defined as total area, then osteolytic areas were traced to calculate the total osteolytic area (FIG. 3A) and the percent osteolytic area/bone area was calculated.

| Compound | tumor growth / total tumor burden in mouse tibia (BLI) [1] | percent osteolytic area/bone area (mean) [2] |
| --- | --- | --- |
| CC(=O)O[C@@]12CO[C@@H]1C[C@H](O)[C@@]1(C)C(=O)[C@H](O)C3=C(C)[C@@H](OC(=O)[C@H](O)[C@@H](NC(=O)OC(C)(C)C)c4ccccc4)C[C@@](O)([C@@H](OC(=O)c4ccccc4)[C@H]21)C3(C)C [Docetaxel, (2R,3S)—N-carboxy-3-phenylisoserine,N-tert-butylester, 13 ester with 5ß-20-epoxy-1,2a,4,78,10B,13a-hexahydroxytax-11-en-9-one 4-acetate 2 benzoate] | neither BAL nor DOC impacted tumor growth as sole agents | lower than vehicle or Balixafortide |
| cyclo(-Tyr-His-Ala-Cys-Ser-Ala-^DPro-Dab-Arg-Tyr-Cys-Tyr-Gln-Lys-^DPro-Pro-) having a disulfide bond between Cys4 and Cys11 [Balixafortide] | neither BAL nor DOC impacted tumor growth as sole agents | no significant differences among the groups |

— patent publication US20260000729A1, “COMBINATION THERAPIES FOR TREATMENT OF CANCER” (The Regents of the University of Michigan, priority 2022, published 2026)
